{"source": "patent US20240043372A1", "about": "“SUBSTITUTED AROMATIC COMPOUNDS AND PHARMACEUTICAL COMPOSITIONS THEREOF” (PHARMACEUTIQUE INGENEW INC., priority 2020, published 2024)", "key": {"human glioblastoma U87": {"tested_on": "human glioblastoma U87", "assay": "Avatar CAM assay, U87 tumour", "type": "in vivo", "conditions": "for Anticancer Activity U87: Avatar CAM, tumour volume at day 16, symbols X to XXXX not defined", "procedure": "(§1) In this example, representative compounds of the present disclosure were tested for their respective effect on tumors using a model of Avatar Chick Chorioallantoic Membrane (CAM) assay. CAM assays have been widely used to study angiogenesis and tumor invasion of colorectal, prostate and brain cancers, as well as for studying patient-derived xenograft for potential personalized medicine.\n(§2) The present inventor has tested representative compounds from the present disclosure or a Positive Control (PCtrl: sodium 2-(2-hydroxy-3,5-dipentylphenyl)acetate) as per the following. Fertilized eggs from white leghorn chicken were used and incubated in an Ova-Easy egg incubator at 37° C. with 60% humidity. At day 3, eggs were cracked. At day 9, U87 (human glioblastoma) cell suspensions (1×10^6 cells), or Caki cells or patient-derived xenograph (glioblastoma fragment) were mixed (1:1) with growth factor reduced Matrigel™ in a total volume of 20 μl for cell lines and POX-patient fragments were placed directly on top of the CAM and were returned to the incubator. Intravenous injection at day 11 or topical administration (Day 11 to Day 16) with or without the compounds. At day 16, chick embryos were killed by decapitation. Tumours were removed and tumour volumes were calculated using the formula: (Dd^2/3)."}, "[1]": {"tested_on": "human renal carcinoma Caki cells", "assay": "Avatar CAM assay, Caki tumour", "type": "in vivo", "conditions": "for Anticancer Activity Caki: Avatar CAM, tumour volume at day 16, symbols X to XXXX not defined; for anticancer activity relative to Sorafenib: FIG. 2, Caki cells in CAM Avatar model", "procedure": "as §1, §2"}, "[2]": {"tested_on": "human fibrosarcoma HT1080 cell", "assay": "Avatar CAM assay, HT1080 tumour", "type": "in vivo", "conditions": "tumour volume at day 16, symbols X to XXXX not defined"}, "[3]": {"tested_on": "PC-3 cells (human prostate cancer cells)", "assay": "PC-3 cell proliferation (MTT)", "type": "cell-based", "conditions": "24 hours", "procedure": "Antiproliferative activity of representative compounds on cancer cells was also undertaken by using PC-3 cells (human prostate cancer cells). PC-3 cells were cultured for 24 hours in 96-well plates with or without Compounds or Positive Control (PCtrl: sodium 2-(2-hydroxy-3,5-dipentylphenyl)acetate) or Setogepram CAS No.: 1002101-19-0 from MedChemExpress LLC, USA) at various concentrations. The last four hours of incubation, 50 μl of a freshly made solution of MTT at 2 mg/ml in PBS were added. Cells were harvested, 150 μl of DMSO were added to solubilize the formazan crystal formed and the plates were read the plate at 570 nm."}, "[4]": {"tested_on": "carboplatin-resistant PDX glioblastoma (GBM20-75)", "assay": "Avatar CAM assay, patient-derived xenograft glioblastoma", "type": "in vivo, human", "conditions": "FIG. 3, PDX glioblastoma resistant to carboplatin", "procedure": "as §1, §2"}, "[5]": {"tested_on": "PDX-fragments from IPF lungs", "assay": "Avatar CAM model, PDX-IPF lung fragments (volume, Masson's trichrome)", "type": "in vivo, human", "conditions": "for collagen deposition in the PDX-IPF fragment: FIG. 5, Masson's trichrome staining", "procedure": "Avatar CAM model was also used to determine the antifibrotic activity of the representative compounds. Briefly, fertilized eggs from white leghorn chicken were used and incubated in an Ova-Easy egg incubator at 37° C. with 60% humidity. At day 3, eggs were cracked. At day 9, PDX-fragments from IPF lungs were grafted on top of the CAM and were returned to the incubator. Treatment by intravenous injection of compounds was performed at day 11 and at day 16, chick embryos were killed by decapitation. IPF-PDX fragments were removed and volumes were calculated using the formula: (Dd^2/3). Fibrosis was determined by a Masson's trichrome staining."}}, "note": "“Also recorded” adds a separate entry of the source.", "data": [{"smiles": "OCCc1cc(Cc2ccccc2)cc(Cc2ccccc2)c1", "note": "[Representative Compound 5]", "values": [{"measurement": "Anticancer Activity U87", "setting": "human glioblastoma U87", "result": "XXXX"}, {"measurement": "anticancer activity relative to carboplatin", "setting": "human glioblastoma U87; FIG. 1, U87 in CAM Avatar model", "result": "reached the anticancer activity of carboplatin"}, {"measurement": "Anticancer Activity Caki", "setting": "[1]", "result": "XXXX"}, {"measurement": "anticancer activity relative to Sorafenib", "setting": "[1]", "result": "reach the anticancer activity of Sorafenib"}, {"measurement": "Anticancer Activity HT1080", "setting": "[2]", "result": "XXX"}, {"measurement": "inhibition at 12.5 µM", "setting": "[3]", "result": 1.7, "unit": "%"}, {"measurement": "inhibition at 25 µM", "setting": "[3]", "result": 42.8, "unit": "%"}, {"measurement": "inhibition at 50 µM", "setting": "[3]", "result": 70.6, "unit": "%"}, {"measurement": "inhibition at 100 µM", "setting": "[3]", "result": 72.2, "unit": "%"}, {"measurement": "inhibition at 200 µM", "setting": "[3]", "result": 53, "unit": "%"}]}, {"smiles": "CCCCCc1cc(CCO)c(O)c(CCCCC)c1", "note": "[Representative Compound 2]", "values": [{"measurement": "Anticancer Activity U87", "setting": "human glioblastoma U87", "result": "XXX"}, {"measurement": "growth (volume) response of PDX glioblastoma to treatment", "setting": "[4]", "result": "does not respond"}, {"measurement": "Anticancer Activity Caki", "setting": "[1]", "result": "XXXX"}, {"measurement": "anticancer activity relative to Sorafenib", "setting": "[1]", "result": "reach the anticancer activity of Sorafenib"}, {"measurement": "inhibition at 12.5 µM", "setting": "[3]", "result": 0, "unit": "%"}, {"measurement": "inhibition at 25 µM", "setting": "[3]", "result": 63.6, "unit": "%"}, {"measurement": "inhibition at 50 µM", "setting": "[3]", "result": 70, "unit": "%"}, {"measurement": "inhibition at 100 µM", "setting": "[3]", "result": 72.2, "unit": "%"}, {"measurement": "inhibition at 200 µM", "setting": "[3]", "result": 66.3, "unit": "%"}]}, {"smiles": "CCCCCc1cccc(CC(=O)O)c1", "note": "[Setogepram, reference compound]", "values": [{"measurement": "inhibition at 62.5 µM", "setting": "[3]", "result": 16.8, "unit": "%"}, {"measurement": "inhibition at 125 µM", "setting": "[3]", "result": 5.7, "unit": "%"}, {"measurement": "inhibition at 250 µM", "setting": "[3]", "result": 10.4, "unit": "%"}, {"measurement": "inhibition at 500 µM", "setting": "[3]", "result": 0, "unit": "%"}, {"measurement": "inhibition at 1000 µM", "setting": "[3]", "result": 0, "unit": "%"}, {"measurement": "collagen deposition in the PDX-IPF fragment", "setting": "[5]", "result": "reduce collagen deposition; also recorded: reduced the collagen deposition"}]}, {"smiles": "N.N.O=C([O-])C1(C(=O)[O-])CCC1.[Pt+2]", "note": "[carboplatin, reference compound]", "values": [{"measurement": "growth (volume) response of PDX glioblastoma to treatment", "setting": "[4]", "result": "effectively resistant"}]}, {"smiles": "CCCCCc1cc(CCCCC)c(O)c(CC(=O)O)c1", "note": "[PCtrl, sodium 2-(2-hydroxy-3,5-dipentylphenyl)acetate, reference compound]", "values": [{"measurement": "inhibition at 12.5 µM", "setting": "[3]", "result": 0, "unit": "%"}, {"measurement": "inhibition at 25 µM", "setting": "[3]", "result": 0, "unit": "%"}, {"measurement": "inhibition at 50 µM", "setting": "[3]", "result": 0, "unit": "%"}, {"measurement": "inhibition at 100 µM", "setting": "[3]", "result": 0, "unit": "%"}, {"measurement": "inhibition at 200 µM", "setting": "[3]", "result": 20, "unit": "%"}]}, {"smiles": "CCCCCc1cc(CCCCC)c(O)c(CC(N)=O)c1", "note": "[Representative Compound 1]", "values": [{"measurement": "inhibition at 12.5 µM", "setting": "[3]", "result": 0, "unit": "%"}, {"measurement": "inhibition at 25 µM", "setting": "[3]", "result": 0, "unit": "%"}, {"measurement": "inhibition at 50 µM", "setting": "[3]", "result": 0, "unit": "%"}, {"measurement": "inhibition at 100 µM", "setting": "[3]", "result": 0, "unit": "%"}, {"measurement": "inhibition at 200 µM", "setting": "[3]", "result": 0, "unit": "%"}]}, {"smiles": "CCCCCc1cc(CCO)c(N)c(CCCCC)c1", "note": "[Representative Compound 3]", "values": [{"measurement": "inhibition at 12.5 µM", "setting": "[3]", "result": 0, "unit": "%"}, {"measurement": "inhibition at 25 µM", "setting": "[3]", "result": 39.1, "unit": "%"}, {"measurement": "inhibition at 50 µM", "setting": "[3]", "result": 67.4, "unit": "%"}, {"measurement": "inhibition at 100 µM", "setting": "[3]", "result": 62.1, "unit": "%"}, {"measurement": "inhibition at 200 µM", "setting": "[3]", "result": 65.8, "unit": "%"}]}, {"smiles": "CCCCCc1cccc(CCO)c1", "note": "[Representative Compound 4]", "values": [{"measurement": "Anticancer Activity HT1080", "setting": "[2]", "result": "XXX"}, {"measurement": "inhibition at 62.5 µM", "setting": "[3]", "result": 26.1, "unit": "%"}, {"measurement": "inhibition at 125 µM", "setting": "[3]", "result": 30.3, "unit": "%"}, {"measurement": "inhibition at 250 µM", "setting": "[3]", "result": 74.2, "unit": "%"}, {"measurement": "inhibition at 500 µM", "setting": "[3]", "result": 72.9, "unit": "%"}, {"measurement": "inhibition at 1000 µM", "setting": "[3]", "result": 70.4, "unit": "%"}, {"measurement": "Antifibrotic Activity PDX (IPF lungs)", "setting": "[5]; Avatar CAM, reduction of volume growth of PDX-IPF fragments, symbols not defined", "result": "XXXX"}, {"measurement": "volume of the PDX-IPF fragments", "setting": "[5]; FIG. 4, intravenous injection at day 11, volume at day 16", "result": "reduces significantly the volume"}, {"measurement": "collagen deposition in the PDX-IPF fragment", "setting": "[5]", "result": "reduce collagen deposition"}]}]}
